Test results: patent publication US11135207B2, “Inhibitors of dihydroceramide desaturase for treating disease” (Centaurus Therapeutics, priority 2016, dated 2021)
Several values for one entry are separate records, joined by “and”; a condition that tells them apart may be missing. Identical values can stand only once. Like-named read-outs stand apart in the source and are kept apart here.

Molecular target: Des1 (Homo sapiens (Human), UniProt O15121)
Assay: Jurkat T cell measurement of conversion of dihydroceramide to ceramide
Assay type: cell-based
Conditions: for inhibition at 10 µM: read-out: Des1 % Inhib (10 μM); for IC50: read-out: Des1 IC50; for inhibition at 1 µM: read-out: Des1 % Inhib (1 μM); for inhibition at 0.5 µM: read-out: Des1 % Inhib (0.5 μM)
Experimental: Jurkat T Cell Measurement of Conversion of Dihydroceramide to Ceramide
Jurkat clone E6-1 cells were grown and then seeded at 10^6 cells/mL in a 96-well plate (400 μL in each well. The cells were administered 100 μL of cell culture media containing 50-μM NBD-C6-dihydroceramide (Des1 substrate), affording a final concentration of substrate of 10 μM. The cells were incubated with substrate at 4° C. for 30 minutes. Following the incubation at 4° C., the cell suspension was centrifuged at 1200 rpm for 3 minutes, and the cell pellet is resuspended in 400 μL of fresh media containing various concentrations of either fenretinide (known Des1 inhibitor control compound) or test article. The final concentrations of control compound and test compounds were tested in a range from 0-10 μM. The cells and compounds were incubated at 37° C. for 3 hours. Following the 3-hour incubation, the plate was centrifuged at 2500 g for 3 minutes at 4° C., followed by collection and transfer of 200 μL of the supernatant to a new 96-well plate with 300 μL of methanol an containing appropriate internal standards for liquid chromatography/tandem mass spectroscopy (LC/MS/MS) analysis (internal standard: 500 nM labetalol and 100 nM alprazolam). The samples were vortexed for 2 minutes followed by centrifugation at 3,220 g for 20 minutes. Following centrifugation, 200 μL of the supernatant was transferred to a new 96-well plate for LC-MS/MS analysis to determine the amount of NBD-C6-ceramide (Des1 product) produced. The assay was typically performed in duplicate. A reduction of at least 30% compared to vehicle control (0 μM test article) is indicative of an active compound, and a reduction of 75% compared to vehicle control is preferred.

[1] = 10 μM compound, Jurkat clone E6-1 cells, NBD-C6-dihydroceramide substrate
[2] = Jurkat clone E6-1 cells, NBD-C6-dihydroceramide substrate
[3] = 1 μM compound, Jurkat clone E6-1 cells
[4] = 0.5 μM compound, Jurkat clone E6-1 cells

Des1, sequence (O15121 whole entry): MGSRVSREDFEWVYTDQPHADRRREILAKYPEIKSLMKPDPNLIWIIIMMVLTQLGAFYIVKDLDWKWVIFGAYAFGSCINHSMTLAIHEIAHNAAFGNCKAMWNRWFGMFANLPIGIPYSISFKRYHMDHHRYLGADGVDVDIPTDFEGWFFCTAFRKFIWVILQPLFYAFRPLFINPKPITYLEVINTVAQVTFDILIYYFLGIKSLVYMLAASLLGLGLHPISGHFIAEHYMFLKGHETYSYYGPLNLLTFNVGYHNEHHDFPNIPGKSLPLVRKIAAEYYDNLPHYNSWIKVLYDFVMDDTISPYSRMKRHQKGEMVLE

SMILES	IC50 [2]	inhibition at 1 µM [3] [%]	inhibition at 0.5 µM [4] [%]	further results
O=C(Nc1ccc(O)cc1)[C@@H]1C[C@H]1c1ccccc1 (relative stereo) [Example 6, (trans)-N-(4-hydroxyphenyl)-2-phenyl-cyclopropane-carboxamide]	590 nM			inhibition at 10 µM [1]: 76%
O=C(Nc1ccc(O)cc1)c1ccc2ccccc2c1 [Example 2, N-(4-hydroxy-phenyl)-2-naphthamide]	840 nM			inhibition at 10 µM [1]: 78%
C/C(=C\C(=O)Nc1ccc(O)cc1)c1ccccc1 [Example 3, (E)-N-(4-hydroxy-phenyl)-3-phenylbut-2-enamide]	4460 nM			inhibition at 10 µM [1]: 49%
O=C(/C=C/c1ccccc1)Nc1ccc(O)cc1 [Example 4, N-(4-hydroxy-phenyl)-cinnamide]	440 nM			inhibition at 10 µM [1]: 85%
O=C(Nc1ccc(O)cc1)c1ccc(-c2ccccc2)cc1 [Example 5, N-(4-hydroxy-phcnyl)-[1,1′-biphenyl]-4-carboxamide]	50 nM			inhibition at 10 µM [1]: 88%
O=C(Nc1ccc(O)cn1)c1ccc2ccccc2c1 [Example 7, N-(5-hydroxy-pyridin-2-yl)-2-naphth-amide]	180 nM	79.8		
O=C(/C=C/c1ccccc1)Nc1ccc(O)cn1 [Example 8, N-(5-hydroxy-pyridin-2-yl)-cinnamide]	60 nM	85.9		
O=C(Nc1ccc(O)cn1)c1ccc(-c2ccccc2)cc1 [Example 9, N-(5-hydroxy-pyridin-2-yl)-(1,1′-biphenyl)-4-carboxamide]	10 nM and 26 nM	93.3		
O=C(Nc1ccc(O)cn1)[C@@H]1C[C@H]1c1ccccc1 [Example 10, (trans)-N-(5-hydroxy-pyridin-2-yl)-2-phenyl-cyclopropane-carboxamide]	230 nM	67.2		
CC(C)=CC(=O)Nc1ccc(O)cc1 [Example 11, N-(4-hydroxy-phenyl)-3-methyl-2-butenamide]	> 10000 nM			inhibition at 10 µM [1]: 20%
O=C(Nc1ccc(O)cc1)c1cccc2ccccc12 [Example 13, N-(4-hydroxy-phenyl)-1-napthamide]	8200 nM			inhibition at 10 µM [1]: 38%
O=C(Nc1ccc(O)cc1)c1ccc2[nH]ncc2c1 [Example 14, N-(4-hydroxy-phenyl)-1H-indazole-5-carboxamide]	> 10000 nM			inhibition at 10 µM [1]: 14.8%
O=C(Nc1ccc(O)cc1)c1ccc(C2CCCCC2)cc1 [Example 15, N-(4-hydroxy-phenyl)-4-cyclohexyl-benzamide]	90 nM			inhibition at 10 µM (Jurkat): 87%
O=C(Nc1ccc(O)cc1)c1ccc(-c2ccc(O)cc2)cc1 [Example 16, N-(4-hydroxy-phenyl)-4′-hydroxy-biphenyl-4-carboxamide]				inhibition at 10 µM [1]: 54%
O=C(Nc1ccc(O)cn1)c1cccc2ccccc12 [Example 19, N-(5-hydroxy-pyridin-2-yl)-1-napthamide]		31		
O=C(Nc1ccc(O)cn1)c1ccc(C2CCCCC2)cc1 [Example 20, N-(5-hydroxy-pyridin-2-yl)-4-cyclohexyl-benzamide]	4 nM			inhibition at 1 µM (Jurkat): 95.9%
CC(C)CCCCCC(=O)Nc1ccc(O)cn1 [Example 31, N-(5-hydroxy-pyridin-2-yl)-7-methyloctan-amide]	1 nM			inhibition at 0.5 µM (Jurkat): 91%
O=C(Nc1ccc(O)cn1)[C@H]1CC[C@H](c2ccc(Cl)cc2)CC1 [Example 32, (1r,4r)-4-(4-chlorophenyl)-N-(5-hydroxy-pyridin-2-yl)-cyclohexane-1-carboxamide]	1 nM			inhibition at 0.5 µM (Jurkat): 96.8%

Further lines, with some results ahead:

IC50 [2]	inhibition at 1 µM [3] [%]	inhibition at 0.5 µM [4] [%]	SMILES	further results
		62.8	O=C(Nc1ccc(O)cn1)c1ccc(-c2ccc(O)cc2)cc1 [Example 21, N-(5-hydroxy-pyridin-2-yl)-4′-hydroxy-biphenyl-4-carboxamide]	
14 nM	95.4		COc1ccc(-c2ccc(C(=O)Nc3ccc(O)cn3)cc2)cc1 [Example 22, N-(5-hydroxy-pyridin-2-yl)-4′-methoxy-biphenyl-4-carboxamide]	
5 nM	96.3		N#Cc1ccc(-c2ccc(C(=O)Nc3ccc(O)cn3)cc2)cc1 [Example 23, N-(5-hydroxy-pyridin-2-yl)-4′-cyano-biphenyl-4-carboxamide]	
3 nM	96.1		O=C(Nc1ccc(O)cn1)c1ccc(-c2ccc(Cl)cc2)cc1 [Example 24, N-(5-hydroxy-pyridin-2-yl)-4′-chloro-biphenyl-4-carboxamide]	
	4.44		O=C(Nc1ccc(O)cn1)c1ccccc1 [Example 25, N-(5-hydroxy-pyridin-2-yl)-benzamide]	
240 nM	74.5		COc1ccc(C(=O)Nc2ccc(O)cn2)cc1 [Example 26, N-(5-hydroxy-pyridin-2-yl)-4-methoxy-benzamide]	
16 nM			CC(C)c1ccc(C(=O)Nc2ccc(O)cn2)cc1 [Example 27, N-(5-hydroxy-pyridin-2-yl)-4-isopropyl-benzamide]	
5 nM	96.2		O=C(Nc1ccc(O)cn1)[C@H]1CC[C@H](c2ccccc2)CC1 [Example 28, (1r,4r)-N-(5-hydroxy-pyridin-2-yl)-4-phenyl-cyclohexane-1-carboxamide]	
6 nM	95.7		CCCCCCCC(=O)Nc1ccc(O)cn1 [Example 29, N-(5-hydroxy-pyridin-2-yl)-octanamide]	
		49.5	O=C(Nc1ccc(O)cn1)C1CCCCC1 [Example 30, N-(5-hydroxy-pyridin-2-yl)-cyclohexane-carboxamide]	
		71.1	O=C(Nc1ccc(O)cn1)c1ccc(-c2ccccn2)cc1 [Example 33, N-(5-hydroxy-pyridin-2-yl)-4-(pyridin-2-yl)benzamide]	
		85.6	O=C(Nc1ccc(O)cn1)c1ccc(-c2cccnc2)cc1 [Example 34, N-(5-hydroxy-pyridin-2-yl)-4-(pyridin-3-yl)benzamide]	
4 nM	95.7	90	CC(C)(C)c1ccc(C(=O)Nc2ccc(O)cn2)cc1 [Example 35, 4-(tert-butyl)-N-(5-hydroxy-pyridin-2-yl)-benzamide]	
		44.8	COCCCCCC(=O)Nc1ccc(O)cn1 [Example 36, N-(5-hydroxy-pyridin-2-yl)-6-methoxy-hexanamide]	
21 nM		93.7	CC(C)OCCCCC(=O)Nc1ccc(O)cn1 [Example 37, N-(5-hydroxy-pyridin-2-yl)-5-isopropoxy-pentanamide]	
19 nM		95.4	O=C(Nc1ccc(O)cn1)c1ccc(-c2ccccc2Cl)cc1 [Example 38, 2′-chloro-N-(5-hydroxy-pyridin-2-yl)-[1,1′-biphenyl]-4-carboxamide]	
		65.9	O=C(Nc1ccc(O)cn1)c1ccc(-c2c(Cl)cccc2Cl)cc1 [Example 39, 2′,6′-dichloro-N-(5-hydroxy-pyridin-2-yI)-[1,1′-biphenyl]-4-carboxamide]	
21 nM		92.6	CC(C)O[C@H]1CC[C@H](C(=O)Nc2ccc(O)cn2)CC1 [Example 40, (1r,4r)-N-(5-hydroxypyridin-2-yl)-4-iso-propoxycyclo-hexane-1-carboxamide]	
88 nM		81.3	CC(C)O[C@H]1CC[C@@H](C(=O)Nc2ccc(O)cn2)CC1 [Example 41, (1s,4s)-N-(5-hydroxypyridin-2-yl)-4-iso-propoxycyclo-hexane-1-carboxamide]	
130 nM		85.5	CCc1ccc(C(=O)Nc2ccc(O)cn2)cc1 [Example 42, 4-ethyl-N-(5-hydroxy-pyridin-2-yl)-benzamide]	
		59.3	Cc1ccc(C(=O)Nc2ccc(O)cn2)cc1 [Example 43, N-(5-hydroxy-pyridin-2-yl)-4-methylbenz-amide]	
63 nM		88	O=C(Nc1ccc(O)cn1)c1ccc(C(F)(F)F)cc1 [Example 44, N-(5-hydroxy-pyridin-2-yl)-4-(trifluoro-methyl)-benzamide]	
23 nM		94	CC(c1ccc(C(=O)Nc2ccc(O)cn2)cc1)C(F)(F)F (centres unmarked) [Example 45, N-(5-hydroxy-pyridin-2-yl)-4-(1,1,1-trifluoro-propan-2-yl)-benzamide]	
		96.2	O=C(CC1CCN(c2ccc(C(F)(F)F)cc2)CC1)Nc1ccc(O)cn1 [Example 46, N-(5-hydroxypyridin-2-yl)-2-[1-[4-(trifluoromethyl)phenyl]piperidin-4-yl]acetamide]	
50 nM			O=C(CN1CCN(c2ccc(C(F)(F)F)cc2)CC1)Nc1ccc(O)cn1 [Example 47, N-(5-hydroxypyridin-2-yl)-2-[4-[4-(trifluoromethyl)phenyl]piperazin-1-yl]acetamide]	
